Publication PMC8333425, “Discovery of a dual Ras and ARF6 inhibitor from a GPCR endocytosis screen” (Nature Communications, 2021)
“And” between values parts separate entries of the source, which are not always exact repeats. Identical values can stand only once.

System: PKC
Assay: PKC BRET sensor, AT1R-mediated
Type: cell-based, human
Description: HEK293SL cells were seeded at a density of 7.5 × 10^5 cells per 100-mm dish and 24 h later, transiently transfected as such. For receptor internalization experiments, cells were transfected with 0.12 μg AT1R-RlucII, B2R-RlucII, or β2AR-RlucII and 0.48 μg of either rGFP-CAAX (to assess removal from the PM) or rGFP-FYVE (to assess accumulation in the endosomes). For β-arrestin recruitment assays, cells were transfected with 0.48 μg of receptor-YFP along with 0.12 μg of β-arrestin-RlucII. For β-arrestin/AP-2 binding experiments, cells were transfected with 1 μg Flag-AT1R, 1 μg β2-Adaptin-YFP, and 0.12 μg β-arrestin2-RlucII. […] For kinetics of β-arrestin recruitment or β-arrestin binding to receptor and AP-2 experiments, cells were serum starved for 30 min, pretreated with 21 (50 µM) or Barbadin (100 µM) for 30 min, stimulated with 100 nM AngII or 1 µM BK and BRET signals were monitored at indicated times using a Victor X Light plate reader (PerkinElmer). […] The BRET ratio was determined by calculating the ratio of the light emitted by YFP over the light emitted by the RlucII. […] For the kinetics of GTPase and PI3K/Akt activation, cells were serum starved, pretreated with 21 (50 µM) or Wortmannin (200 nM) for 30 min, stimulated with ligand (100 nM AngII or 100 ng/ml EGF) and BRET signals were monitored at indicated times. […]

Q: CC(C)C(=O)N1CCN(c2ccc(NC(=O)c3cc4ccccc4o3)cc2Cl)CC1 [Compound 21] was tested. Which “AT1R-mediated PKC activation” value (50 μM) did it give?
A: The value was “did not inhibit AT1R-mediated PKC activation”.

Q: What about the “PKC BRET sensor signal (S_Fig.4b), single experiments” value (listed as Comp 21) of the same compound?
A: The value was 0.07767 and 0.069 and 0.0815.
